Source: patent US4201866A, “O-Hemi-succinate of propranolol” (American Home Products Corporation, priority 1977, dated 1980)
Values joined by “and” are separate entries in the source; they are usually repeats but may differ in a detail not shown here. Equal values may be shown once. Where a name gives a salt, the structure may show the parent alone. Read-outs that look alike come from different tables or passages of the source.

What was measured:
Format in all cases: in vivo, beagle dogs
[1] = Oral administration of propranolol-o-hemi-succinate HCl and propranolol HCl; plasma levels of free propranolol (Example 2)
Method: In this experiment, four beagle dogs were given an 80 mg. oral dose of propranolol HCl or an equivalent dose of the o-hemi-succinate. The animals were divided into two groups of two, each group receiving the drugs according to a crossover design. The crossover experiment was repeated twice. A period of at least one week elapsed between each dosing day. Blood samples were obtained at regular intervals after dosing a plasma was analyzed for free propranolol concentrations.
(§1) Plasma was analyzed for free propranolol by a TLC fluorometric procedure. Two ml samples were mixed with 2 ml of pH 10 buffer and extracted with 25 ml of ethyl ether. A 20 ml aliquot from the ether phase was evaporated to dryness and the dry residue was dissolved in 100 μl of ethanol. Twenty-five μl aliquots were spotted on TLC plates of silica gel along with standard solutions of propranolol. The plates were developed in a saturated tank containing the solvent system methanol (100 ml): concentrated NH4 OH (0.4 ml). After development, the plates were dried and sprayed with a 50% solution of propylene glycol in water. They were then read in the fluorescence mode of a Schoeffel spectrodensitometer. The limit of reliable quantitation was 2 ng. of propranolol per ml of plasma.

[2] = Oral administration of a reduced dose of propranolol-o-hemi-succinate hydrochloride; plasma levels of free propranolol (Example 4)
Method: Two beagle dogs were given an oral dose of 13.4 mg of propranolol-O-hemi-succinate hydrochloride (equivalent to 10 mg. propranolol HCl). Blood samples were obtained at regular intervals after drug administration and plasma analyzed for free propranolol. Plasma levels of free propranolol were compared to those obtained following administration of 80 mg dose of propranolol HCl.

[3] = Intravenous propranolol-o-hemi-succinate hydrochloride; plasma levels of unchanged ester and free propranolol (Example 5)
Method: (§2) Four beagle dogs were administered propranolol-o-hemi-succinate hydrochloride either intravenously or orally. The dogs were divided into two groups of two, each group receiving each dosing regimen according to a crossover design. The oral doses consisted of 107 mg of propranolol-o-hemi-succinate hydrochloride (equivalent to 80 mg propranolol HCl) and the intravenous doses consisted of 26.7 mg of propranolol-o-hemi-succinate hydrochloride (equivalent to 20 mg propranolol HCl). Blood samples were collected at regular intervals after dosing and plasma was analyzed for free propranolol and unchanged propranolol-o-hemi-succinate hydrochloride.
(§3) Plasma was analyzed for propranolol-o-hemi-succinate hydrochloride by a TLC fluorometric procedure. Two ml samples were mixed with 2 ml of pH 4 buffer and extracted with 40 ml of methylene chloride. A 30 ml aliquot from the organic phase was evaporated to dryness and the residue was dissolved in 100 μl of ethanol. Twenty-five μl aliquots were spotted on TLC plates of silica gel along with standard solutions of propranolol-o-hemi-succinate hydrochloride. The plates were developed in saturated tank containing the solvent system: isopropyl alcohol (55 ml), benzene (40 ml), water (5 ml), formic acid (3 ml). After developement, the plates were dried and sprayed with a 50% solution of propylene glycol in water. They were read in the fluorescence mode of a Schoeffel spectrodensitometer. The limit of reliable quantitation was 25 ng per ml of plasma.

[4] = Oral propranolol-o-hemi-succinate hydrochloride; plasma levels of unchanged ester and free propranolol (Example 5)
Method: as §2, §3

[5] = Intravenous administration of propranolol HCl and propranolol-o-hemi-succinate HCl; plasma levels of free propranolol (Example 3)
Method: as §1
In this experiment, the same four dogs used in Example 2 were administered a 20 mg intravenous dose of propranolol HCl on one experimental day and an equivalent dose of the o-hemi-succinate on a second day. A period of one week elapsed between each administration. Blood samples were collected and analyzed as above.

[6] = 80 mg propranolol HCl or equivalent

CC(C)NCC(COc1cccc2ccccc12)OC(=O)CCC(=O)O (stereo not drawn) [propranolol-o-hemi-succinate HCl, Butanedioic Acid Monol[[2-(1-Methylethyl] Amino] -1-[(1-Naphthalenyloxy) Methyl] Ethyl] Ester Hydrochloride]
Absorption of the succinate and its conversion to propranolol [1]: rapid
plasma levels of free propranolol relative to equivalent dose of propranolol hydrochloride [1]: eight times higher
C.V. of overall mean AUC 0-6 hr [1, 6]: 41%
s.d. of overall mean AUC 0-6 hr [1, 6]: 445 ng·h/mL
Plasma level of propranolol following oral administration, compared with propranolol hydrochloride ([1]; equivalent dose): considerably higher
reduction of fluctuation in plasma levels following the pro-drug, as revealed by AUC values ([1]; vs propranolol hydrochloride): 35%
Plasma level of free propranolol ([2]; 6 hours after dosing, 80 mg propranolol HCl or 13.4 mg hemi-succinate HCl, individual dogs, Hydrochloride): Trace
levels of free propranolol at a dose 1/8 that of propranolol HCl ([2]; dogs, vs propranolol HCl, only two dogs): comparable levels
Plasma level of unchanged propranolol-o-hemi-succinate HCl ([3]; 0 h, i.v. 26.7 mg, individual dogs, in ng/mL): 0
Plasma level of unchanged propranolol-o-hemi-succinate HCl ([3]; 1/2 hr, i.v. 26.7 mg, individual dogs, 30 min, Hydrochloride): 692 ng/mL and 1130 ng/mL and 811 ng/mL and 487 ng/mL
Plasma level of unchanged propranolol-o-hemi-succinate HCl ([3]; 5 min, i.v. 26.7 mg, individual dogs, Hydrochloride): 2770 ng/mL and 2540 ng/mL and 1430 ng/mL
Plasma level of unchanged propranolol-o-hemi-succinate HCl ([3]; 10 min, i.v. 26.7 mg, individual dogs, Hydrochloride): 1590 ng/mL and 2350 ng/mL and 1780 ng/mL and 946 ng/mL
Plasma level of unchanged propranolol-o-hemi-succinate HCl ([3]; 15 min, i.v. 26.7 mg, individual dogs, Hydrochloride): 1210 ng/mL and 1760 ng/mL and 1340 ng/mL and 819 ng/mL
Plasma level of unchanged propranolol-o-hemi-succinate HCl ([3]; 1 hr, i.v. 26.7 mg, individual dogs, Hydrochloride, 60 min): 366 ng/mL and 198 ng/mL
Plasma level of unchanged propranolol-o-hemi-succinate HCl ([3]; 2 hrs, i.v. 26.7 mg, individual dogs, Hydrochloride, 120 min): 91 ng/mL and 76 ng/mL and 132 ng/mL and 30 ng/mL
Plasma level of unchanged propranolol-o-hemi-succinate HCl ([3]; 4 hrs, i.v. 26.7 mg, individual dogs, * = estimate only, below level of reliable quantitation, Hydrochloride): Trace
Plasma level of unchanged propranolol-o-hemi-succinate HCl ([3]; 6 hrs, i.v. 26.7 mg, individual dogs): Trace
Mean plasma level of unchanged propranolol-o-hemi-succinate HCl ([3]; 6 hrs, i.v. 26.7 mg, mean): Trace
half-life of free propranolol ([3]; after i.v. succinate ester): two
half-life ([3]; dog, plasma, 26.7 mg, following intravenous dosing, read-out: t 1/2 of disappearance of propranolol-o-hemi-succinate hydrochloride): 30 min
concentration at 0.5 h ([3]; dog, plasma, iv, 26.7 mg, 1/2 hr, i.v. 26.7 mg, mean, read-out: Mean plasma level of unchanged propranolol-o-hemi-succinate HCl): 781 ng/mL
concentration at 5 min ([3]; dog, plasma, iv, 26.7 mg, 5 min, i.v. 26.7 mg, individual dogs, read-out: Plasma level of unchanged propranolol-o-hemi-succinate HCl): 2200 ng/mL
concentration at 5 min ([3]; dog, plasma, iv, 26.7 mg, 5 min, i.v. 26.7 mg, mean, read-out: Mean plasma level of unchanged propranolol-o-hemi-succinate HCl): 2240 ng/mL
concentration at 10 min ([3]; dog, plasma, iv, 26.7 mg, 10 min, i.v. 26.7 mg, mean, read-out: Mean plasma level of unchanged propranolol-o-hemi-succinate HCl): 1670 ng/mL
concentration at 0.25 h ([3]; dog, plasma, iv, 26.7 mg, 15 min, i.v. 26.7 mg, mean, read-out: Mean plasma level of unchanged propranolol-o-hemi-succinate HCl): 1280 ng/mL
concentration at 1 h ([3]; dog, plasma, iv, 26.7 mg, 1 hr, i.v. 26.7 mg, individual dogs, read-out: Plasma level of unchanged propranolol-o-hemi-succinate HCl): 287 ng/mL
concentration at 1 h ([3]; dog, plasma, iv, 26.7 mg, 1 hr, i.v. 26.7 mg, mean, read-out: Mean plasma level of unchanged propranolol-o-hemi-succinate HCl): 284 ng/mL
concentration at 2 h ([3]; dog, plasma, iv, 26.7 mg, 2 hrs, i.v. 26.7 mg, mean, read-out: Mean plasma level of unchanged propranolol-o-hemi-succinate HCl): 82 ng/mL
concentration at 4 h ([3]; dog, plasma, iv, 26.7 mg, 4 hrs, i.v. 26.7 mg, individual dogs, * = estimate only, below level of reliable quantitation, read-out: Plasma level of unchanged propranolol-o-hemi-succinate HCl): ~15 ng/mL
concentration at 4 h ([3]; dog, plasma, iv, 26.7 mg, 4 hrs, i.v. 26.7 mg, mean, * = estimate only, below level of reliable quantitation, read-out: Mean plasma level of unchanged propranolol-o-hemi-succinate HCl): ~4 ng/mL
AUC(0-t) at 6 h ([3]; dog, plasma, iv, 26.7 mg, i.v. 26.7 mg, mean, read-out: Mean AUC 0-6 hr of unchanged propranolol-o-hemi-succinate HCl): 1230 ng·h/mL
AUC 0-6 hr of unchanged propranolol-o-hemi-succinate HCl ([3]; i.v. 26.7 mg, individual dogs, Hydrochloride, 360 min): 1160 ng·h/mL and 1530 ng·h/mL and 1520 ng·h/mL and 711 ng·h/mL
Mean plasma level of unchanged propranolol-o-hemi-succinate HCl ([3]; i.v. 26.7 mg, mean): 0
ester left 4 hours after administration ([3]; i.v., 4 hours): virtually none
plasma levels of free propranolol 6 hours after administration of the succinate ester ([3]; i.v., 6 hours): significant plasma levels still existed
Plasma level of unchanged propranolol-o-hemi-succinate HCl ([4]; 0 h, oral 107 mg, individual dogs, in ng/mL): 0
Mean plasma level of unchanged propranolol-o-hemi-succinate HCl ([4]; 0 h, oral 107 mg, mean): 0
Plasma level of unchanged propranolol-o-hemi-succinate HCl ([4]; 1 hr, oral 107 mg, individual dogs, Hydrochloride, 60 min): 2950 ng/mL and 1900 ng/mL and 3240 ng/mL and 1320 ng/mL
Plasma level of unchanged propranolol-o-hemi-succinate HCl ([4]; 2 hrs, oral 107 mg, individual dogs, Hydrochloride, 120 min): 715 ng/mL and 390 ng/mL and 486 ng/mL and 268 ng/mL
Plasma level of unchanged propranolol-o-hemi-succinate HCl ([4]; 6 hrs, oral 107 mg, individual dogs, * = estimate only, below level of reliable quantitation, Hydrochloride): 0 ng/mL
Plasma level of unchanged propranolol-o-hemi-succinate HCl ([4]; 6 hrs, oral 107 mg, individual dogs, * = estimate only, below level of reliable quantitation, Hydrochloride, 360 min): 20 ng/mL and 13 ng/mL and 8 ng/mL
concentration at 0.5 h ([4]; dog, plasma, po, 107 mg, 1/2 hr, mean, read-out: Mean plasma level of unchanged propranolol-o-hemi-succinate HCl): 1760 ng/mL
concentration at 1 h ([4]; dog, plasma, po, 107 mg, 1 hr, mean, read-out: Mean plasma level of unchanged propranolol-o-hemi-succinate HCl): 2350 ng/mL
concentration at 2 h ([4]; dog, plasma, po, 107 mg, 2 hrs, mean, read-out: Mean plasma level of unchanged propranolol-o-hemi-succinate HCl): 465 ng/mL
concentration at 4 h ([4]; dog, plasma, po, 107 mg, 4 hrs, mean, read-out: Mean plasma level of unchanged propranolol-o-hemi-succinate HCl): 62 ng/mL
concentration at 6 h ([4]; dog, plasma, po, 107 mg, 6 hrs, mean, * = estimate only, below level of reliable quantitation, read-out: Mean plasma level of unchanged propranolol-o-hemi-succinate HCl): ~10 ng/mL
AUC(0-t) at 6 h ([4]; dog, plasma, po, 107 mg, mean, read-out: Mean AUC 0-6 Hrs. of unchanged propranolol-o-hemi-succinate HCl): 3470 ng·h/mL
AUC 0-6 Hrs. of unchanged propranolol-o-hemi-succinate HCl ([4]; oral 107 mg, individual dogs, Hydrochloride, 360 min): 3590 ng·h/mL and 3366 ng·h/mL and 4818 ng·h/mL and 2121 ng·h/mL
Plasma levels of free propranolol compared with propranolol i.v. ([5]; equivalent dose): lower
Conversion of the propranolol ester to propranolol ([5]; i.v.): very fast
levels of propranolol found 5 minutes after administration ([5]; i.v., 5 minutes): high levels
